SMILES strings stand for the structures.

Experimental findings from patent US11098035B2, “Compounds, compositions, and methods for increasing CFTR activity” (Proteostasis Therapeutics, Inc., priority 2014, dated 2021) are described below.

Experiment [1] has as its target T1, ΔF508-CFTR (Homo sapiens, UniProt P13569, DEL508-508).
T1 construct: Primary lung epithelial cells homozygous for the Cystic Fibrosis-causing ΔF508 mutation were differentiated for a minimum of 4 weeks; endogenous in cells; host or cells: primary human bronchial (lung) epithelial cells (hBE) homozygous for ΔF508, differentiated at an air-liquid interface
The experiment in a line: Ussing Measurements. Type of experiment: cell-based. Particulars: compound at 10 uM and VX-809 at 3 uM, activity as % of VX-809 (3 uM); CFTRinh-172 inhibitable short-circuit current; hBEs homozygous for ΔF508, 24 h treatment. On the procedure:
As discussed above, Ussing measurements are used to measure CFTR activity. In this method, primary lung epithelial cells (hBEs) homozygous for the Cystic Fibrosis-causing ΔF508 mutation are differentiated for a minimum of 4 weeks in an air-liquid interface on SnapWell filter plates prior to the Ussing measurements. Cells are apically mucus-washed for 30 minutes prior to treatment with compounds. The basolateral media is removed and replaced with media containing the compound of interest diluted to its final concentration from DMSO stocks. Treated cells are incubated at 37° C. and 5% CO2 for 24 hours. […] The short-circuit current is measured in voltage clamp-mode (Vhold=0 mV), and the entire assay is conducted at a temperature of 36° C.-36.5° C. Once the voltages stabilized, the chambers are clamped, and data is recorded by pulse readings every 5 seconds. Following baseline current stabilization, the following additions can be applied and the changes in current and resistance of the cells can be monitored: • 1. […]
The inhibitable current (that current that is blocked by CFTRinh-172) is measured as the specific activity of the ΔF508-CFTR channel, and increases in response to compound in this activity over that observed in vehicle-treated samples are identified as the correction of ΔF508-CFTR function imparted by the compound tested. […]

In experiment [2] the target is T1, ΔF508-CFTR. The experiment in a line: hBE Equivalent Current (Ieq) Assay. The settings on record: compound at 10 uM and VX-809 at 1 uM, activity as % of VX-809 (1 uM); AUC of equivalent chloride current; primary lung epithelial cells homozygous for ΔF508, 24 h treatment. Type of experiment: cell-based. On the procedure: Primary lung epithelial cells homozygous for the Cystic Fibrosis-causing ΔF508 mutation were differentiated for a minimum of 4 weeks in an air-liquid interface on Costar 24 well HTS filter plates prior to the equivalent current (Ieq) measurements. Cells were apically mucus-washed for 30 minutes 24 h prior to treatment with compounds. The basolateral media was removed and replaced with media containing the compound of interest diluted to its final concentration from DMSO stocks. Treated cells were incubated at 37° C. and 5% CO2 for 24 hours. At the end of the treatment period, the media was changed to the Ieq experimental solution for 30 minutes before the experiment and plates are maintained in a CO2-free incubator during this period. The plates containing the cells were then placed in pre-warmed heating blocks at 36° C.±0.5 for 15 minutes before measurements are taken. The transepithelial voltage (VT) and conductance (GT) were measured using a custom 24 channel current clamp (TECC-24) with 24 well electrode manifold. The Ieq assay measurements were made following additions with standardized time periods: • 1. The baseline VT and GT values were measured for approximately 20 minutes. • 2. Benzamil was added to block ENaC for 15 minutes. • 3. Forskolin plus VX-770 were added to maximally activate ΔF508-CFTR for 27 minutes. • 4. Bumetanide was added to inhibit the NaK2Cl cotransporter and shut-off secretion of chloride.
The activity data captured was the area under the curve (AUC) for the traces of the equivalent chloride current. The AUC was collected from the time of the forskolin/VX-770 addition until the inhibition by bumetanide addition. Correction in response to compound treatment was scored as the increase in the AUC for compound-treated samples over that of vehicle-treated samples.
The results are shown below in Table 2. ++ indicates activity ≥25% run at 10 uM of VX-809 at 1 uM, + indicates activity 10 to <25% run at 10 uM of VX-809 at 1 uM, **indicates activity ≥200% of VX-809 (1 uM) with compound at 10 uM and VX-809 at 1 uM; * indicates activity 100-200% of VX-809 (1 uM) with compound at 10 uM and VX-809 at 1 uM. ^## indicates activity ≥200% of VX-809 (3 uM) with compound at 10 uM and VX-809 at 3 uM; ^# indicates activity 100-200% of VX-809 (3 uM) with compound at 10 uM and VX-809 at 3 uM.

T1 sequence (P13569 with tags, fused parts or gaps DEL508-508): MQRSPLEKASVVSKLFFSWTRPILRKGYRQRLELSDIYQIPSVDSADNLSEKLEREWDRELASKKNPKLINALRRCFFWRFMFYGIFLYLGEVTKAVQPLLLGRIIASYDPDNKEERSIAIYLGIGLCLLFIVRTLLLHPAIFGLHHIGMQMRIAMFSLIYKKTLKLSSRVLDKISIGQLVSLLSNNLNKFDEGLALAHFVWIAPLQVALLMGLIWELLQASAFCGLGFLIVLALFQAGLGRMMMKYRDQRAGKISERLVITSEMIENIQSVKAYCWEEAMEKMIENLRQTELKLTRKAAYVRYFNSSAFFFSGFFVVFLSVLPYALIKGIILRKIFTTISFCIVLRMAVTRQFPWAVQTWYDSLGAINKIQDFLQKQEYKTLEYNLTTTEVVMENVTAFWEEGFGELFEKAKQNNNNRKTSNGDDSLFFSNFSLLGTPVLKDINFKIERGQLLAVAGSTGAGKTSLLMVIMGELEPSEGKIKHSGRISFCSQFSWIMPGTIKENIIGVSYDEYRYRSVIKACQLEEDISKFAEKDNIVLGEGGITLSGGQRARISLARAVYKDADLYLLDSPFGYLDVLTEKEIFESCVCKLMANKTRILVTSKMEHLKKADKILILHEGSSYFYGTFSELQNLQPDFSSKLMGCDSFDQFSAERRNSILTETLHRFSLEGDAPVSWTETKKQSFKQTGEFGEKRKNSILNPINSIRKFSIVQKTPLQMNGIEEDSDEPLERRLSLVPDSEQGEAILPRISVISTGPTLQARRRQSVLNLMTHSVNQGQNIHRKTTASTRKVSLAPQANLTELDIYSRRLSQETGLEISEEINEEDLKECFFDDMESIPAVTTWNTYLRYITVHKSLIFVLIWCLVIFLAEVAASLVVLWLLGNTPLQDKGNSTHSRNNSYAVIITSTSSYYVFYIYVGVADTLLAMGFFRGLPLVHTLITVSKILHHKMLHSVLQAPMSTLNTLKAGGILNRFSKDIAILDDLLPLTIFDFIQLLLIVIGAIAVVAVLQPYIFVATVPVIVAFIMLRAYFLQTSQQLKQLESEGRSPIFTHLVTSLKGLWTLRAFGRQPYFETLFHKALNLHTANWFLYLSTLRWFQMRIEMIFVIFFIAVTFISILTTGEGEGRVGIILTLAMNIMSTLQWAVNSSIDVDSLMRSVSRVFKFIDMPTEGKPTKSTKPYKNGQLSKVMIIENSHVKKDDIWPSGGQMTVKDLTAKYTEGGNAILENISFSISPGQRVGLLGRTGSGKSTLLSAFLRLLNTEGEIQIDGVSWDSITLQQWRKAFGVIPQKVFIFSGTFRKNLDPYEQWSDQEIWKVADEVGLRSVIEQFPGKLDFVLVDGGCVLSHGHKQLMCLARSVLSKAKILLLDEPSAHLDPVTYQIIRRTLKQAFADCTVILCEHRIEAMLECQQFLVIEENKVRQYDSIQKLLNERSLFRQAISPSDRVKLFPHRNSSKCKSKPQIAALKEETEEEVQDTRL

On to `O=C(NC1CC(n2nncc2CO)C1)c1cc(-c2ccccc2)no1` (stereo not drawn) [Example 5, N-trans-3-(5-(hydroxymethyl)-1H-1,2,3-triazol-1-yl)cyclobutyl)-3-phenylisoxazole-5-carboxamide], for which the Ussing entry at ΔF508-CFTR [1] was “## (^## indicates activity ≥200% of VX-809 (3 uM) with compound at 10 uM and VX-809 at 3 uM)”.
On to `C[C@@H](O)c1nnc(C2CC(NC(=O)c3cc(-c4ccccc4)no3)C2)o1` (stereo partly drawn) [Example 6], for which the Ieq result at ΔF508-CFTR [2] is “* (* indicates activity 100-200% of VX-809 (1 uM) with compound at 10 uM and VX-809 at 1 uM)”. Besides, the Ussing result on ΔF508-CFTR [1] was “## (^## indicates activity ≥200% of VX-809 (3 uM) with compound at 10 uM and VX-809 at 3 uM)”.
